The values below come from patent publication US11918582B2 (RAPT Therapeutics, Inc., priority 2021, dated 2024).

pIC50: −log10 of the molar value. Structures can show the parent of a compound that is named as a salt. Some results are limits rather than exact numbers.

The target in the test is T1, human HPK1 (MAP4K1) (Homo sapiens, UniProt Q92918).
T1 construct: Recombinant human HPK1 kinase domain was obtained from ThermoFisher (Cat. #PV6357) and SignalChem (Cat. #M23-11G); purchased ThermoFisher; SignalChem PV6357; M23-11G
T1 sequence (Q92918 17-274 limits assumed): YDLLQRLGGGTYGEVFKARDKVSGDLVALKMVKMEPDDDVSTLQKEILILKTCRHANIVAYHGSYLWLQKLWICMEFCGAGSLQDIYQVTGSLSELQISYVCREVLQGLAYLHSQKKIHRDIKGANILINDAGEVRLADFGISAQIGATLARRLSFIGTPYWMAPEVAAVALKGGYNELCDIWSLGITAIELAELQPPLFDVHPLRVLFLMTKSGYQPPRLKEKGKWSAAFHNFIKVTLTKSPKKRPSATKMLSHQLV
The test can be described thus: Biochemical assay for activity against HPK1 (ADP-Glo, MBP substrate). Particulars: recombinant human HPK1 kinase domain, 1 nM enzyme, ADP-Glo luminescence. In outline:
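Recombinant human HPK1 kinase domain (1 nM solution) preincubated 15 min at room temperature with compounds in pH 7.5 HEPES buffer with NaCl, TCEP, MgCl2, Tween-20, BSA. MBP substrate with ATP added, reaction run 2 h at room temperature. ADP formation read by ADP-Glo luminescence to give IC50.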
A general note: ADP-Glo turns the ADP formed in a reaction into a luminescent signal.

Consider `COc1cc2c(cc1Nc1ncc3cnn(C[C@@H]4CCCN4C(C)=O)c3n1)C(C)(C)N(C)CC2` [Example 178, (S)-1-(2-((6-((6-methoxy-1,1,2-trimethyl-1,2,3,4-tetrahydroisoquinolin-7-yl)amino)-1H-pyrazolo[3,4-d]pyrimidin-1-yl)methyl)pyrrolidin-1-yl)ethan-1-one], for which the pIC50 is more than 7.00.

As for `COc1cc2c(cc1Nc1ncc3c(C)nn([C@@H]4CCC[C@@H](C(N)=O)C4)c3n1)CN(C)CC2` [Example 56, (1R,3R)-3-(6-((6-methoxy-2-methyl-1,2,3,4-tetrahydroisoquinolin-7-yl)amino)-3-methyl-1H-pyrazolo[3,4-d]pyrimidin-1-yl)cyclohexane-1-carboxamide], the pIC50 is more than 7.00.

For the compound `COc1cc2c(cc1Nc1ncc3cnn([C@H]4CCC[C@H](C(N)=O)C4)c3n1)CN(C)CC2` (stereo in doubt) [Example 40, (1S,3S)-3-(6-((6-methoxy-2-methyl-1,2,3,4-tetrahydroisoquinolin-7-yl)amino)-1H-pyrazolo[3,4-d]pyrimidin-1-yl)cyclohexane-1-carboxamide], the pIC50 is more than 7.00.

With `COc1cc2c(cc1Nc1ncc3cnn(C[C@@H]4CCCCN4C(C)=O)c3n1)CN(C)CC2` [Example 134, (S)-1-(2-((6-((6-methoxy-2-methyl-1,2,3,4-tetrahydroisoquinolin-7-yl)amino)-1H-pyrazolo[3,4-d]pyrimidin-1-yl)methyl)piperidin-1-yl)ethan-1-one], the pIC50 is more than 7.00.

Regarding `COc1cc2c(cc1Nc1ncc3cnn(C[C@@H]4CCC[C@@H]4C(=O)O)c3n1)CN(C)CC2` (racemic) [Example 162, Rac-cis-2-[[6-[(6-methoxy-2-methyl-3,4-dihydro-1H-isoquinolin-7-yl)amino]pyrazolo[3,4-d]pyrimidin-1-yl]methyl]cyclopentanecarboxylic Acid], the pIC50 was more than 7.00.

Take `COC[C@H]1CC[C@H](n2ncc3cnc(Nc4cc5c(cc4OC)CCN(C)C5)nc32)CC1` [Example 175, 6-methoxy-N-[trans-1-[4-(methoxymethyl)cyclohexyl]pyrazolo[3,4-d]pyrimidin-6-yl]-2-methyl-3,4-dihydro-1H-isoquinolin-7-amine]: the pIC50 was more than 7.00.

As to `COc1cc2c(cc1Nc1ncc3cnn(C[C@H]4CCCCN4C(C)=O)c3n1)CN(C)CC2` [Example 211, 1-[(2R)-2-[[6-[(6-methoxy-2-methyl-3,4-dihydro-1H-isoquinolin-7-yl)amino]pyrazolo[3,4-d]pyrimidin-1-yl]methyl]-1-piperidyl]ethenone hydrochloride], the pIC50 was 6.60 to 7.00.

For `COc1cc2c(cc1Nc1ncc3cnn(C[C@@H]4[C@@H](C)[C@H](O)CN4C(C)=O)c3n1)CN(C)CC2` [Example 164, 1-[(2S,3R,4R)-4-hydroxy-2-[[6-[(6-methoxy-2-methyl-3,4-dihydro-1H-isoquinolin-7-yl)amino]pyrazolo[3,4-d]pyrimidin-1-yl]methyl]-3-methyl-pyrrolidin-1-yl]ethenone], the pIC50 is more than 7.00.

In the case of `CNC(=O)[C@H]1CC[C@@H](n2nc(C)c3cnc(Nc4cc5c(cc4OC)CCN(C)C5)nc32)CC1` [Example 52, (cis)-4-(6-((6-methoxy-2-methyl-1,2,3,4-tetrahydroisoquinolin-7-yl)amino)-3-methyl-1H-pyrazolo[3,4-d]pyrimidin-1-yl)-N-methylcyclohexane-1-carboxamide], the negative logarithm of the IC50 (pIC50) was more than 7.00.

Regarding `COc1cc2c(cc1Nc1ncc3c(C)nn([C@H]4CC[C@@H](O)CC4)c3n1)CN(C)CC2` [Example 45, (cis)-4-(6-((6-methoxy-2-methyl-1,2,3,4-tetrahydroisoquinolin-7-yl)amino)-3-methyl-1H-pyrazolo[3,4-d]pyrimidin-1-yl)cyclohexan-1-ol], the negative logarithm of the IC50 (pIC50) is more than 7.00.

Consider `COc1cc2c(cc1Nc1ncc3cnn([C@H]4CC[C@@H](OC)CC4)c3n1)CN(C)CC2` [Example 46, 6-methoxy-N-(1-((1s,4s)-4-methoxycyclohexyl)-1H-pyrazolo[3,4-d]pyrimidin-6-yl)-2-methyl-1,2,3,4-tetrahydroisoquinolin-7-amine], for which the pIC50 was more than 7.00.

For `COc1cc2c(cc1Nc1ncc3cnn(C[C@@H]4C[C@@H](O)CN4C(C)=O)c3n1)CN(C)CC2` [Example 130, 1-((2S,4R)-4-hydroxy-2-((6-((6-methoxy-2-methyl-1,2,3,4-tetrahydroisoquinolin-7-yl)amino)-1H-pyrazolo[3,4-d]pyrimidin-1-yl)methyl)pyrrolidin-1-yl)ethan-1-one trifluoroacetate], the pIC50 is more than 7.00.

As to `COc1cc2c(cc1Nc1ncc3cnn(C[C@@H]4C[C@@H]5C[C@@H]5N4C(C)=O)c3n1)CN(C)CC2` [Example 216, 1-[(1S,3S,5S)-3-[[6-[(6-methoxy-2-methyl-3,4-dihydro-1H-isoquinolin-7-yl)amino]pyrazolo[3,4-d]pyrimidin-1-yl]methyl]-2-azabicyclo[3.1.0]hexan-2-yl]ethanone], the pIC50 is more than 7.00.

As to `CN1CCc2ccc(Nc3ncc4cnn(CCN5CCCS5(=O)=O)c4n3)cc2C1` [Example 4, N-[1-[2-(1,1-dioxo-1,2-thiazolidin-2-yl)ethyl]pyrazolo[3,4-d]pyrimidin-6-yl]-2-methyl-3,4-dihydro-1H-isoquinolin-7-amine trifluoroacetate], the pIC50 is more than 7.00.

For the compound `COc1cc2c(cc1Nc1ncc3cnn(CC4CCCCO4)c3n1)CN(C)CC2` (racemic) [Example 201, (S)-6-methoxy-2-methyl-N-(1-((tetrahydro-2H-pyran-2-yl)methyl)-1H-pyrazolo[3,4-d]pyrimidin-6-yl)-1,2,3,4-tetrahydroisoquinolin-7-amine and (R)-6-methoxy-2-methyl-N-(1-((tetrahydro-2H-pyran-2-ylmethyl)-1H-pyrazolo[3,4-d]pyrimidin-6-yl)-1,2,3,4-tetrahydroisoquinolin-7-amine Hydrochloride, Racemic Mixture], the pIC50 is more than 7.00.

Regarding `COc1cc2c(cc1Nc1ncc3cnn(C[C@@H]4C[C@H]5C[C@H]5N4C(C)=O)c3n1)CN(C)CC2` [Example 215, 1-[(1R,3S,5R)-3-[[6-[(6-methoxy-2-methyl-3,4-dihydro-1H-isoquinolin-7-yl)amino]pyrazolo[3,4-d]pyrimidin-1-yl]methyl]-2-azabicyclo[3.1.0]hexan-2-yl]ethanone], the pIC50 was more than 7.00.

For the compound `CCC(=O)N1CCC[C@H]1Cn1ncc2cnc(Nc3cc4c(cc3OC)CCN(C)C4)nc21` [Example 112, (S)-1-(2-((6-((6-methoxy-2-methyl-1,2,3,4-tetrahydroisoquinolin-7-yl)amino)-1H-pyrazolo[3,4-d]pyrimidin-1-yl)methyl)pyrrolidin-1-yl)propan-1-one trifluoroacetate], the negative-log IC50 (pIC50) is more than 7.00.

On to `CC(=O)N1CCC[C@H]1Cn1ncc2cnc(Nc3cc4c(c(C(F)(F)F)c3)CCN(C)C4)nc21` [Example 62, (S)-1-(2-((6-((2-methyl-5-(trifluoromethyl)-1,2,3,4-tetrahydroisoquinolin-7-yl)amino)-1H-pyrazolo[3,4-d]pyrimidin-1-yl)methyl)182thenone182ne-1-yl)ethan-1-one], for which the pIC50 was more than 7.00.

Consider `COc1cc2c(cc1Nc1ncc3cnn(C[C@@H]4CCCC[C@@H]4CO)c3n1)CN(C)CC2` (racemic) [Example 166, [rac-cis-2-[[6-[(6-methoxy-2-methyl-3,4-dihydro-1H-isoquinolin-7-yl)amino]pyrazolo[3,4-d]pyrimidin-1-yl]methyl]cyclohexyl]methanol], for which the pIC50 was more than 7.00.

For the compound `COc1cc2c(cc1Nc1ncc3cnn(C[C@H]4CN(C(C)=O)CCO4)c3n1)CN(C)CC2` [Example 127, (R)-1-(2-((6-((6-methoxy-2-methyl-1,2,3,4-tetrahydroisoquinolin-7-yl)amino)-1H-pyrazolo[3,4-d]pyrimidin-1-yl)methyl)morpholino)ethan-1-one trifluoroacetate], the negative logarithm of the IC50 (pIC50) is more than 7.00.

Turning to `COc1cc2c(cc1Nc1ncc3cnn(C4CCN(C(C)=O)CC4)c3n1)CN(C)CC2` [Example 106, 1-(4-(6-((6-methoxy-2-methyl-1,2,3,4-tetrahydroisoquinolin-7-yl)amino)-1H-pyrazolo[3,4-d]pyrimidin-1-yl)piperidin-1-yl)ethan-1-one trifluoroacetate], the pIC50 is more than 7.00.

Turning to `COc1cc2c(cc1Nc1ncc3cnn(C[C@@H]4C[C@@H]4F)c3n1)CN(C)CC2` (racemic) [Example 207, N-(1-(((cis)-2-fluorocyclopropyl)methyl)-1H-pyrazolo[3,4-d]pyrimidin-6-yl)-6-methoxy-2-methyl-1,2,3,4-tetrahydroisoquinolin-7-amine], the pIC50 was more than 7.00.

Consider `CN1CCc2c(cc(Nc3ncc4cnn([C@H]5CC[C@@H](O)CC5)c4n3)cc2C(F)(F)F)C1` [Example 179, (1s,4s)-4-(6-((2-methyl-5-(trifluoromethyl)-1,2,3,4-tetrahydroisoquinolin-7-yl)amino)-1H-pyrazolo[3,4-d]pyrimidin-1-yl)cyclohexan-1-ol], for which the pIC50 is more than 7.00.

As a reminder, the pIC50 is the IC50 on a negative log10 scale, so that one unit is a factor of ten.
